Results: patent publication US12077503B2, “Substituted cyclic amides and their use as herbicides” (FMC CORPORATION, priority 2015, dated 2024)

Assays:
Type in all cases: in vivo
[1] = tested on: barnyardgrass (Echinochloa crus-galli); assay: Test A preemergence; details: Echinochloa crus-galli, pre-emergence, 240 h, preemergence, read-out: Barnyardgrass plant response rating
How it was run: (§1)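 Compounds were formulated in a non-phytotoxic solvent mixture with surfactant and applied as a preemergence directed soil spray after seeding, or sprayed postemergence over plants 2 to 10 cm tall at the one- to two-leaf stage. Evaluation after about 10 d compared treated with untreated controls, using a scale from 0 (no effect) to 100 (complete control).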

[2] = tested on: ryegrass, Italian (Italian ryegrass, Lolium multiflorum); assay: Test A preemergence; details: Lolium multiflorum, pre-emergence, 240 h, preemergence, read-out: Ryegrass, Italian plant response rating
How it was run: as §1

Kochia (Kochia scoparia) [3] = assay: Test A preemergence; details: Bassia scoparia, pre-emergence, 240 h, preemergence, read-out: Kochia plant response rating
How it was run: as §1

[4] = tested on: ragweed (common ragweed, Ambrosia elatior); assay: Test A preemergence; details: Ambrosia artemisiifolia, pre-emergence, 240 h, preemergence, read-out: Ragweed plant response rating
How it was run: as §1

[5] = tested on: pigweed (Amaranthus retroflexus); assay: Test A preemergence; details: Amaranthus retroflexus, pre-emergence, 240 h, preemergence, read-out: Pigweed plant response rating
[6] = tested on: giant foxtail (Setaria faberii); assay: Test A preemergence; details: Setaria faberi, pre-emergence, 240 h, preemergence, read-out: Foxtail, Giant plant response rating
How it was run: as §1

[7] = tested on: barnyardgrass (Echinochloa crus-galli); assay: Test A postemergence; details: Echinochloa crus-galli, post-emergence, 240 h, postemergence, read-out: Barnyardgrass plant response rating
How it was run: as §1

[8] = tested on: wheat (Triticum aestivum); assay: Test A postemergence; details: Triticum aestivum, post-emergence, 240 h, postemergence, read-out: Wheat plant response rating
How it was run: as §1

corn (Zea mays) = assay: Test A postemergence; details: Zea mays, post-emergence, 240 h, postemergence, read-out: Corn plant response rating
How it was run: as §1

[9] = tested on: ryegrass, Italian (Italian ryegrass, Lolium multiflorum); assay: Test A postemergence; details: Lolium multiflorum, post-emergence, 240 h, postemergence, read-out: Ryegrass, Italian plant response rating
How it was run: as §1

Kochia (Kochia scoparia) [10] = assay: Test A postemergence; details: Bassia scoparia, post-emergence, 240 h, postemergence, read-out: Kochia plant response rating
How it was run: as §1

[11] = tested on: ragweed (common ragweed, Ambrosia elatior); assay: Test A postemergence; details: Ambrosia artemisiifolia, post-emergence, 240 h, postemergence, read-out: Ragweed plant response rating
How it was run: as §1

[12] = tested on: pigweed (Amaranthus retroflexus); assay: Test A postemergence; details: Amaranthus retroflexus, post-emergence, 240 h, postemergence, read-out: Pigweed plant response rating
How it was run: as §1

[13] = tested on: blackgrass (Alopecurus myosuroides); assay: Test A postemergence; details: Alopecurus myosuroides, post-emergence, 240 h, postemergence, read-out: Blackgrass plant response rating
How it was run: as §1

[14] = tested on: giant foxtail (Setaria faberii); assay: Test A postemergence; details: Setaria faberi, post-emergence, 240 h, postemergence, read-out: Foxtail, Giant plant response rating
How it was run: as §1

[15] = 125 g ai/ha, 0 to 100 scale where 0 is no effect and 100 is complete control, approx. 10 d
[16] = 500 g ai/ha, visual injury rating about 10 d after treatment, 0 to 100 scale (0 no effect, 100 complete control)
[17] = 125 g ai/ha, visual injury on 0 to 100 scale (0 no effect, 100 complete control), approx. 10 d
[18] = 500 g ai/ha, 0 to 100 scale, 0 is no effect, 100 is complete control

Cc1ccc([C@H]2CNC(=O)[C@]2(Br)C(=O)Nc2cccc(F)c2F)cc1F (racemic) [Compound 1073]
10%: pest or weed control at 125 g/ha [4, 15]
70%: pest or weed control at 500 g/ha (Kochia (Kochia scoparia) [3]; [16]) | pest or weed control at 125 g/ha [7, 17]
30%: pest or weed control at 500 g/ha [4, 16] | plant injury at 500 g/ha [8, 18] | pest or weed control at 125 g/ha [11, 17] | pest or weed control at 500 g/ha [11, 18] | pest or weed control at 500 g/ha [13, 18]
40%: pest or weed control at 500 g/ha [9, 18] | pest or weed control at 500 g/ha (Kochia (Kochia scoparia) [10]; [18]) | pest or weed control at 500 g/ha [14, 18]
20%: pest or weed control at 500 g/ha [2, 16] | plant injury at 125 g/ha (corn (Zea mays); [17]) | pest or weed control at 500 g/ha [12, 18]
90%: pest or weed control at 500 g/ha [7, 18]
100%: pest or weed control at 125 g/ha [1, 15] | pest or weed control at 500 g/ha [1, 16] | pest or weed control at 125 g/ha [5, 15] | pest or weed control at 500 g/ha [5, 16] | pest or weed control at 125 g/ha [6, 15] | pest or weed control at 500 g/ha [6, 16]
50%: plant injury at 500 g/ha (corn (Zea mays); [18])
0%: pest or weed control at 125 g/ha [2, 15] | pest or weed control at 125 g/ha (Kochia (Kochia scoparia) [3]; [15]) | plant injury at 125 g/ha [8, 17] | pest or weed control at 125 g/ha [9, 17] | pest or weed control at 125 g/ha (Kochia (Kochia scoparia) [10]; [17]) | pest or weed control at 125 g/ha [12, 17] | pest or weed control at 125 g/ha [13, 17] | pest or weed control at 125 g/ha [14, 17]
